This is an account of results in a melting point compilation (Tetko et al.; mined from patent text by program, amines drawn as free bases though some values may be those of a salt).

Molecules are shown by their SMILES.

As for `CC(=NNc1nnc(-n2c(=S)[nH]c3ccccc32)s1)c1ccccn1`, the melting point was over 280 °C. The value for `COc1cccc(C2CNC(=O)C2c2cn3c4c(cccc24)CCC3)c1` (configuration not stated) was 191 to 194 °C; that for `COc1ccc(OC(C)=O)c(C(=O)O)c1` was 155 to 157 °C. The compound `Cc1cc2cc(C(=O)O)ccc2s1` registered a melting point of 220 to 222 °C. The figure for `CCOC(=O)c1nn(-c2ccccc2)c2c1COc1ccccc1-2` is 154 to 156 °C.

In turn, `CN1CCN(c2ccnc3c(NC(=O)c4ccccc4[N+](=O)[O-])cccc23)C1=O` showed a melting point of 226 to 228 °C. `CCC1(C)CC(O)C2(C)CCC3c4ccc(OC)cc4CCC3C12` (configuration not stated) came in with a melting point of 133 to 136 °C. The figure for `CCOC(=O)c1ccc(N)c(C)c1` is 76 to 77 °C; for `CCCCC1=C(Cl)C(=O)c2ccccc2C1=O` it is 69 to 70 °C; for `COC[C@@H](C)N1Cc2c(ccc(Cl)c2NC(=O)c2ccc(F)c(C(F)(F)F)c2)C1=O` it is 131 to 132 °C. The figure for `C#Cc1ccc2c(c1)C(=O)CC(C)(C)S2` is 63 to 66 °C; for `CN(C)S(=O)(=O)c1ccc(O)c(O)c1` it is 142 °C; for `COC(=O)c1scc(-c2ccccc2)c1-c1ccc(S(=O)O)c(F)c1` it is 133 °C. The value for `NS(=O)(=O)c1ccc(-c2cccc(-c3nc(-c4ccc(C(F)(F)F)nc4)cc(C(F)F)n3)c2)s1` was 246 °C. Compound `O=C(Nc1ccc(C(=O)N2Cc3ccccc3Cc3ccccc32)cc1)c1ccc(C(F)(F)F)cc1` registered a melting point of 205 to 207 °C.

The compound `C#CCON=C(C(C)=NOCc1ccccc1C(=COC)C(=O)OC)c1ccc(F)cc1` showed a melting point of 91 to 93 °C. The figure for `N#Cc1ncn2c1[C@@H]1CCCN1C(=O)c1ccccc1-2` is 223 to 225 °C; for `CC(C)C(=O)N(C)C1CN(C(=O)Nc2ccc(C(F)(F)F)cc2)N=C1c1ccc(Cl)cc1` (configuration not stated) it is 180 to 182 °C; for `CCN1CCCC1CNC(=O)c1c(O)ccc(Br)c1OC` (configuration not stated) it is 62 to 63 °C. The figure for `CCOc1nc2cccc(C(=O)OC)c2n1Cc1ccc(-c2ccccc2-c2nc(=O)o[nH]2)cc1` is 186 to 187 °C. The value for `N#CC1(c2nnn[nH]2)CCCC1` was 92 to 94 °C; that for `CCC(C)(C)O[C@H]1COC[C@H](NC(=O)c2nccc(OC)c2O)C(=O)O[C@@H](C)[C@@H]1OCC(C)C` was 138 to 140 °C; that for `CC#CC(C)(C)NC(=O)C(CC)Oc1ccc2ccncc2c1` (configuration not stated) was 149 to 150 °C. `CC(C)c1cn2ccccc2c1Sc1ccc(O)cc1` displayed a melting point of 100 °C. The figure for `COc1cc(COc2nn(-c3ccccc3)cc2/C=C/C(=O)N(C)OC)ccc1OCc1nc(-c2ccco2)oc1C` is 173 to 174 °C.

Take `Cc1ccc(NC(=O)c2ccc(CN3CCN(C)C(=O)C3)cc2)cc1Nc1nccc(-c2cccnc2)n1`: the melting point fell in the range of 187 to 192 °C. The figure for `CCOC(=O)/C(=N\OCC(=O)N1CCCCC1)c1csc(N)n1` is 151 to 152 °C. The figure for `OCc1cccc(Nc2nc(Oc3ccccc3)nc(Oc3ccc(Cl)cc3)n2)c1` is 110 to 114 °C; for `CCc1c(C(F)(F)F)noc1NS(=O)(=O)c1cccc2ccccc12` it is 135 to 137 °C; for `CC(C)(C)c1cc(C=Cc2cc(C=Cc3cc(C(C)(C)C)cc(C(C)(C)C)c3)cc(CBr)c2)cc(C(C)(C)C)c1` it is 222 to 223 °C. The compound `O=C(Nc1ccccn1)Nc1csc(-c2ccccn2)n1` yielded a melting point of 233 to 235 °C. The value for `Cc1cnc(C#N)c(C)c1[N+](=O)[O-]` was 66 to 71 °C; that for `CC(C)N1c2ccccc2N(C(C)C)c2ccccc21` was 80 to 81 °C. For `Cc1cc(Br)ccc1NC(=O)c1cc([N+](=O)[O-])ccc1NC(=O)CF`, the melting point fell in the range of 247 to 249 °C. The value for `COc1cccc(NC(=S)NC(NC(=O)c2ccc(C)cc2)C(F)(F)F)c1` (configuration not stated) was 206 to 208 °C. The value for `CC1(C)C(C=NOCC2CC2)C1C(=O)O` (configuration not stated) was 82 to 85 °C; that for `N=C(Nc1cc(Cl)cc(NC(=O)/C=C/c2ccccc2C(F)(F)F)c1)c1ccsc1` was 121 to 123 °C.

`C=C(C)C1CCC2C3CC(=O)C4=CC(=O)CCC4(C)C3CCC12C` (configuration not stated) registered a melting point of 148 to 150 °C.

Take `CC12CCC3C(C=CC4=CC(=O)CCC43CO)C1CCC2C(=O)CO` (configuration not stated): the melting point fell in the range of 161 to 164 °C.

`O=C1CC(CCN2CCC(c3c[nH]c4ccccc34)CC2)c2ccccc2N1` (configuration not stated) came in with a melting point of 115 to 117 °C.

`CC(=O)Nc1cc(O)c(C(=O)CCCCl)cc1Cl`: the melting point was 103 to 106 °C. In turn, `CC(C)(C)[N+]([O-])=Cc1c(O)cc(O)cc1O` came in with a melting point of 190 °C. The compound `Clc1ccc2nc(-c3ccsc3)cn2n1` displayed a melting point of 203 to 205 °C. The value for `Nc1nonc1-c1nc2ccccc2n1CC(=NO)c1ccc(Br)cc1` was 198 to 201 °C; that for `Cc1ccc(NCc2ccc(C(=O)Nc3ccccc3NC(=O)OC(C)(C)C)cc2)cc1Nc1nccc(-c2cccnc2)n1` was 125 °C; that for `COc1cc2oc(=O)c(CCN3CCN(c4ccccc4OC)CC3)c(C)c2cc1O` was 235 to 237 °C. The value for `COc1cc2c(cc1OCc1ccccc1)CCN(Cc1cccc(Oc3ccccc3)c1)C2` was 111 to 112 °C. The value for `Cc1cccc(Cl)c1NC(=S)Nc1c(C)nn(C)c1C` was 201 to 202 °C.

The compound `CCc1nc2c(N)nc3cc(OCc4ccc(C(F)(F)F)o4)ccc3c2s1` yielded a melting point of 152 to 154 °C. The value for `O=C(NCCO)c1ccc(OCC2(O)CCN(Cc3ccccc3)CC2)cc1` was 161 °C.

Consider `CO[C@H]1CCN(C(=O)c2cc(-c3ccccc3)c(=O)n3c2-c2sccc2C3)C1`, for which the melting point fell in the range of 159 to 162 °C. The figure for `CC(C)c1nc(COCc2ccccc2)n(Cc2ccccc2)c1Sc1cccc(Cl)c1` is 120 to 122 °C; for `CC(=O)NCCCC(=O)c1ccc(Cl)cc1C(CC(=O)O)c1ccccc1` (configuration not stated) it is 114 to 116 °C. The value for `COC(=O)CCc1ccc(-n2c(C)nn(-c3ccc(C#N)cc3)c2=O)cc1` was 163 to 164 °C; that for `O=c1[nH]c2ncc(-c3ccc4[nH]ccc4c3)nc2n1CC1CCCCC1` was 343 to 346 °C.

Compound `O=c1cc(-c2ccncc2)nc2n1CC(F)(F)CN2` registered a melting point of 239 to 240 °C. The figure for `O=C(NC(=O)c1ccc(F)cc1Cl)Nc1ccc(C(F)(F)F)c(F)c1` is 181 °C. The compound `CN(CCCCOc1ccc(C=C2SC(=O)NC2=O)cc1)c1nc2ccccc2o1` gave a melting point of 168 °C. The figure for `COc1ccc(C(=O)Nc2cc(NC(=O)c3ccc(OCCCCl)cc3)ccc2C)cc1OC` is 186 to 187 °C. The value for `CC(C)c1nc2c(N)nc3ccccc3c2s1` was 163 to 165 °C. In turn, `COc1ccc(/C(=C\C=C\C(=O)NCCCCc2cccnc2)c2cccnc2)cc1` yielded a melting point of 108 to 110 °C. The value for `CNc1nc(-c2ccccc2)c(-c2nc3ccccc3c(=O)n2-c2ccc(C)cc2)s1` was 192 to 193 °C.

Take `CON=C(C)c1c(C)oc2c(-n3c(=O)cc(C(F)(F)F)n(C)c3=O)c(F)cc(Cl)c12`: the melting point lay within 65 to 67 °C. The figure for `Cc1c(C(=O)O)ccc(S(C)(=O)=O)c1-c1ccon1` is 150 to 151 °C. The figure for `NCc1ccn(C2=CC3=C(CC2)CCc2[nH]c(=O)c(=O)n(OCC(=O)O)c23)c1` is over 300 °C; for `CC1CN(Cc2n[nH]c3ccccc23)CCN1c1ccccc1` (single isomer, unassigned; (+)) it is 164 to 165 °C.

In turn, `CC(C)CC1(C(C)C(=O)NO)CCN(CCc2ccccc2)C1=O` (configuration not stated) had a melting point of 107 to 108 °C. The figure for `O=C(NCCCCCCOC(=O)N1CCC(OC(=O)N2CCCCC2)CC1)Oc1ccc(Oc2ccccc2)cc1` is 56 to 61 °C; for `CCOC(=O)c1[nH]c(C)c(C(C)(C)C)c1C` it is 108 to 110 °C; for `CN(C)C(=O)Cn1c(-c2ccc([N+](=O)[O-])cc2)nc2cccnc21` it is 204 to 207 °C. The value for `CC(S)C(=O)NCCc1ccccc1` (configuration not stated) was 78 to 79 °C; that for `N#CC(=CNc1ccccc1)Cc1cnc2ccccc2c1` was 202 to 203 °C; that for `Cc1c(C)c(NCc2ccccc2)c2c(c1C)C(=O)C(C)(C)O2` was 108 to 109 °C.

Turning to `CCCCOc1ccc(/C=C/c2nc3c(c(=O)n(CC)c(=O)n3CC)n2C)cc1`, the melting point is 123 to 124 °C. For the compound `CCn1nc(C)cc1C(=O)OC`, the melting point was in the range of 130 to 133 °C. The figure for `COc1cc2nc(S(=O)Cc3cccn4ccnc34)[nH]c2cc1OC` (configuration not stated) is 195 to 196 °C; for `O=CC(=Cc1ccc(OC(=O)c2ccc(Br)cc2)cc1)C(C=O)=Cc1ccc(OC(=O)c2ccc(Br)cc2)cc1` it is 223 to 225 °C; for `C[C@@H]1S[C@@H](C(=O)Nc2ccc(CN3C(=O)CNC3=O)cc2)Cc2cc3c(cc2C1=O)OCO3` it is 139 to 144 °C. On to `COc1ccc(C(F)(F)F)cc1Nc1cccn2nc(Nc3cccc(N4CCN(C)CC4)c3)nc12`, for which the melting point lay in the range of 198 to 200 °C. The figure for `COc1ccc(N2CCN(c3c(C)c(C)c4c(c3C)C(O)(c3ccccc3)C(C)(C)O4)CC2)cc1` (configuration not stated) is 123 to 125 °C; for `COc1cc(C)nc(N=C=S)n1` it is 54 to 55 °C. On to `NC1=NS(=O)(=O)c2cccc(Cl)c21`, for which the melting point amounted to 218 °C. In turn, `COc1c(C=Cc2ccc(C=CC3=C(C#N)C(=C(C#N)C#N)OC3(C)C)s2)cc2c3c1CCCN3CCC2` returned a melting point of 201 to 204 °C. Compound `Cc1cc(C#N)cc(C(=O)Nc2ccc(F)c(F)c2)n1` showed a melting point of 170 °C.

`CC(CC(=O)Nc1cccc(/C=C/c2nc(C3CCC3)cs2)c1)C(=O)O` (configuration not stated) registered a melting point of 165 to 167 °C. Regarding `CN1C(=O)[C@H](NC(=O)COc2ccc(Cl)cc2Cl)N=C(c2ccccc2)c2ccccc21`, the melting point came to 206 °C. The figure for `O=[N+]([O-])c1cn2c(n1)OC[C@@H](OCc1ccc(-c3nc4cc(OC(F)(F)F)ccc4[nH]3)cc1)C2` is 98 to 99 °C.

As a reminder, the melting point is the temperature of the solid-liquid transition.
